The record followed here is PMC6178282, “Comparative cell biological study of in vitro antitumor and antimetastatic activity on melanoma cells of GnRH-III-containing conjugates modified with short-chain fatty acids” (Beilstein Journal of Organic Chemistry, 2018).

The test system of assay [1] is A2058 cells. The experiment in a line: Inhibition assay for phosphatidylinositol 3-kinase (pretreatment with wortmannin or LY294002, alamarBlue viability). The format is cell-based, human. The settings on record: then compound 10^−5 M for 48 h, from averages of 6 parallels. As for the experimental part:
The association of PI3K activation with the antitumor activity of the conjugates was determined by pretreating the cells with PI3K inhibitors (wortmannin – W and LY294002 – LY). The antitumor effect of the conjugates and Dau on the cells pretreated with PI3K inhibitors or with DMSO (solvent of the inhibitors) was assessed by an alamarBlue-assay after 48 h of incubation. The results of the PI3K-assay were given by calculating the inhibition index as the ratio of the viability of the pretreated and control (DMSO-treated) cell populations being incubated with medium or conjugates (10^−5 M). […]
was measured with LS-50B Luminescence Spectrometer (Perkin Elmer Ltd., Buckinghamshire United Kingdom) by using λ = 560 nm for excitation and λ = 590 nm for detection of the emitted light.
Each data represents the mathematical average of six parallels. The decrease in the fluorescence intensity caused by the different treatments was normalized to the identical control and this value was given as ‘Viability’ in percent. […]
A2058 cells were prepared in 96-well plates as it was aforementioned in ‘Cell proliferation and cytotoxicity measurement’ section. […] The number of viable cells was determined by the alamarBlue-assay as it was described in ‘Cell proliferation and cytotoxicity measurement’ chapter. To analyze the effects of inhibitors on the actions of conjugates, the inhibition index was calculated by […]

Assay [2] relates to A2058 cells. The experiment in a line: Cell adhesion measurement, xCELLigence impedimetry. The settings on record: Delta CI at 3 h normalized to control, three parallels. Format: cell-based, human. From the text: The first crucial steps in metastasis cascade are the impaired adhesion contacts and in parallel the increased motility of tumor cells. These two events substantially provide for tumor cells to detach from the primary tumor and migrate to the surrounding tissue. Besides the tumor-selective antiproliferative/cytotoxic activity of the conjugates, they could be also desired to have an ability to interfere with the dissemination of cancer cells by modulating their adhesion and migration. In order to evaluate the conjugates as antimetastatic therapeutics, their effects on melanoma cell adhesion were investigated by the impedance-based xCELLigence System. The cell adhesion modulator effects of compounds were characterized by Delta Cell index values. […]
The effect of Dau-GnRH-III conjugates on cell adhesion of model cell was assessed using the xCELLigence SP System ( ACEA Biosciences, San Diego, CA, USA).
The adhesion assay, analogous to the description in [5], was started with a background measurement as mentioned above in the section “Cell proliferation and cytotoxicity measurement”. […] The adhesion of A2058 cells was monitored every 20 sec for at least 12 h at 10 kHz.
The attachment and spreading of model cell were characterized by a time-course study of the Delta CI values. The Delta CI values were calculated by the integrated software (RTCA 2.0). […]

Regarding `COc1cccc2c1C(=O)c1c(O)c3c(c(O)c1C2=O)C[C@@](O)(C(C)=O)C[C@@H]3O[C@H]1C[C@H](N)[C@H](O)[C@H](C)O1` [daunorubicin], the “inhibition index, LY294002” value in assay [1] (A2058 cells pretreated 30 min with LY294002 (15 μM)) came out at 100.7 ± 4.0%. For the same compound, in assay [1] (A2058 cells pretreated 30 min with wortmannin (50 nM)), the “inhibition index, wortmannin” value is reported as 121.0 ± 8.1%. Moreover, the “effect on cell adhesion (Delta Cell index)” value in assay [2] (10^−5 M) is listed as “decrease”. Also, in assay [2] (tested 10^−8–10^−5 M), the “concentrations at which adhesion of A2058 cells was increased (Delta Cell index)” value is 10^−8 to 10^−7 M.
